According to patent publication US20230416287A1, “Chemical Compounds” (GLAXOSMITHKLINE INTELLECTUAL PROPERTY DEVELOPMENT LIMITED, priority 2022, published 2023):
≈ marks a conversion by molar mass, not a printed value.

How the values were obtained:
CAD kinetic solubility = format: physicochemical; conditions: phosphate buffered saline (PBS), aqueous buffer, PBS pH 7.4, 1 hour equilibration at room temperature, from DMSO stock, HPLC-CAD
Description: Kinetic solubility was measured using Charged Aerosol Detector (CAD). The aqueous kinetic solubility at pH 7.4 was determined by measuring the concentration of solute in solution after precipitation from DMSO stock solution. The DMSO stock solution was diluted 20-fold with phosphate buffered saline (PBS) pH 7.4 and the solubility of the compound was measured after 1 hour equilibration at room temperature by HPLC-CAD.

human Nav1.8 = human Nav1.8 (Homo sapiens, UniProt Q9Y5Y9); experiment: Nav1.8 inhibitory activity, QPatch 48 HTX electrophysiology in HEK293-Nav1.8 cells; format: cell-based; parameters: expressed in transfected cells; host or cells: HEK293; conditions: half inactivation state voltage protocol (V1/2), HEK293 cells expressing human Nav1.8, read-out: [Nav1.8] pIC50 (converted)
Description: Biological Assay 1: Nav1.8 Inhibitory Activity Human embryonic kidney 293 cells (HEK293) expressing human Nav1.8, human Navol and human TREK1 (HEK293-Nav1.8) were grown in T150 cell culture flasks at 37° C., 5% CO2 incubator. HEK293-Nav1.8 were passaged every 2-3 days when confluency reached 80-90% in T150 cell culture flasks.
Pharmacological assessment of compounds of the invention was performed using the QPatch 48 HTX electrophysiological platform. HEK293-Nav1.8 cells were prepared on the day of use by removing culture media, washing in DPBS, adding Accutase (2 mL to cover the surface, aspirate 1 mL then 1-2 minutes at 37° C.) followed by addition of CHO-SFM II to stop the enzyme digestion and in order to obtain a suspension of 3×10^6 cell/mL.
Compounds of the invention were prepared in an extracellular solution of the following composition: NaCl (145 mM), KCl (4 mM), CaCl2) (2 mM), MgCl (2 mM), HEPES (1 mM), Glucose (10 mM), pH 7.4 with NaOH Osmolality 300 mOsM/L. An intracellular solution of the following composition was used: CsF (115 mM), CsCl (20 mm), NaCl (5 mM), EGTA (10 mM), HEPES (10 mM), Sucrose (20 mM), pH 7.2 with CsOH Osmolality 310 mOsm/L.
Utilizing the voltage-clamp mode in the QPatch 48 HTX system a half inactivation state voltage protocol (V1/2) was used to determine pharmacological activity of compounds of the invention at Nav1.8 ion channels. A V1/2 protocol was utilized with the following voltage steps: a holding voltage of −100 mV was established followed by a 20 ms voltage step to 0 mV (P1), followed by an inactivating voltage step at −46 mV for 8 seconds, followed by a step to −100 mV for 20 ms, before a 20 ms step to 0 mV (P2), then returned to the holding voltage of −100 mV. This voltage protocol was repeated at a frequency of every 15 seconds, the current magnitude was quantified at the P2 step throughout the recording. Inhibition of the measured current amplitude with compounds of the invention was analyzed by fitting a 4-6 points dose-response curve allowing determination of the fifty percent inhibition concentration (IC50). P2 currents were normalized according to measurements made at baseline (Baseline, vehicle only), after compound (Input, at each test concentration), and after positive reference compound (FullResponse, to achieve complete block), fit to the following equation: […]
To assess current run-down over the course of the experiment vehicle-only wells were utilized and the normalized current with vehicle-only (n. IVEH) was determined. To correct the compound response for run-down, the currents were corrected according to the following formula:
[formula] • Compound inhibition was fitted to the following Hill Equation to estimate the half maximal inhibition concentration (IC50)
[formula] • where Y is the normalized run-down corrected inhibition relative to the vehicle control (equivalent to n. IRD_Correct), C the test compound concentration, IC50 the concentration of test compound to inhibit the sodium current by 50%, and h the Hill coefficient.

[1] = Rat IV/PO pharmacokinetic study; format: in vivo, Han Wistar rats
Description: An in vivo rat pharmacokinetic study was conducted to determine whether prodrug compounds of the invention are converted to the respective parent compound upon administration. The rat pharmacokinetic study was conducted with a crossover design on two study days with a one-day recovery period between each study day. Three male, dual catheterized (femoral vein and carotid artery) Han Wistar rats were used for the study. Each rat was also implanted with a gastric catheter for oral dose administration. Rats were dosed at 1 mg/kg by a 60-minute intravenous (IV) infusion (femoral vein cannula), then subsequently oral dosed at 2 mg/kg via the gastric cannula, with 48 hours between dosing sessions. Dose solutions of the compound of Example 4 were prepared in 20% Cavitron/5% DMSO/75% water (IV) and in 6% Cavitron/5% DMSO/89% water (PO) without pH adjustment. The dose solutions were filtered using a 0.22 μm filter. The pH of the final dosing solutions was 6.0.
During the intravenous study leg, blood samples were collected from the carotid artery catheter at target times of 15, 30, 60 (end of infusion), 65, 75, 90, 120, 240, 360, 480, 720, and 1440 minutes following the initiation of the intravenous infusion of the compound of Example 4. During the oral study leg, blood samples were collected prior to dosing and at target times of 15, 30, 60, 90, 120, 180, 240, 360, 480, 720, and 1440 minutes following oral administration. Blood samples (100 μL) were mixed with 100 μL phosphatase inhibitor, a 50 μL aliquot of the blood and inhibitor mixture was transferred to a non-heparinized tube and stored at approximately −80° C. until analyzed. The concentrations in the filtered dose solutions were confirmed by preparing stepwise dilutions first into 50% aqueous acetonitrile with 0.10% formic acid then into heparinized male Wistar Han blood: inhibitor to achieve determined nominal concentrations. Triplicate 50 μL aliquots were removed and were frozen and stored at approximately […] until analyzed by LC-MS/MS as described below. LC-MS/MS was used to quantify the compound of Example 4 and the corresponding parent compound of Example 4A in the biological samples generated in the above described in vivo study.
Samples were prepared by protein precipitation followed by LC-MS/MS analysis employing positive-mode ionization against a set of calibration standards for the compounds prepared in the same matrix. Pharmacokinetic parameters for the study were derived from the concentration versus time profiles. Key pharmacokinetic parameters such as AUC0-∞. (extrapolated area under the blood concentration-time curve), AUC0-t (area under the blood concentration-time curve to the last time point with quantifiable drug), Cmax (maximum concentration), Tmax (time Cmax is achieved), CL (systemic blood clearance), Vdss (steady-state volume of distribution), MRT (mean residence time), and t1/2 (half-life) were determined for the compound of Example 4. The key pharmacokinetic parameters such as AUC0-∞, AUC0-t, Cmax, Tmax, MRT, and t1/2 (half-life) were determined for the parent compound Example 4A. Descriptive statistical data of pharmacokinetic parameters were calculated, including the mean and standard deviation (SD) using Microsoft Excel. The data are shown below in Tables 5A and 5B. Data are reported as mean±SD (N=3).

[2] = male, Han Wistar, prodrug Example 4 in blood, intravenous infusion of Example 4, 1 mg/kg, mean ± SD, N=3
[3] = male, Han Wistar, prodrug Example 4 in blood, intravenous infusion, 1 mg/kg, mean ± SD, N=3

human Nav1.8, sequence (Q9Y5Y9 whole entry): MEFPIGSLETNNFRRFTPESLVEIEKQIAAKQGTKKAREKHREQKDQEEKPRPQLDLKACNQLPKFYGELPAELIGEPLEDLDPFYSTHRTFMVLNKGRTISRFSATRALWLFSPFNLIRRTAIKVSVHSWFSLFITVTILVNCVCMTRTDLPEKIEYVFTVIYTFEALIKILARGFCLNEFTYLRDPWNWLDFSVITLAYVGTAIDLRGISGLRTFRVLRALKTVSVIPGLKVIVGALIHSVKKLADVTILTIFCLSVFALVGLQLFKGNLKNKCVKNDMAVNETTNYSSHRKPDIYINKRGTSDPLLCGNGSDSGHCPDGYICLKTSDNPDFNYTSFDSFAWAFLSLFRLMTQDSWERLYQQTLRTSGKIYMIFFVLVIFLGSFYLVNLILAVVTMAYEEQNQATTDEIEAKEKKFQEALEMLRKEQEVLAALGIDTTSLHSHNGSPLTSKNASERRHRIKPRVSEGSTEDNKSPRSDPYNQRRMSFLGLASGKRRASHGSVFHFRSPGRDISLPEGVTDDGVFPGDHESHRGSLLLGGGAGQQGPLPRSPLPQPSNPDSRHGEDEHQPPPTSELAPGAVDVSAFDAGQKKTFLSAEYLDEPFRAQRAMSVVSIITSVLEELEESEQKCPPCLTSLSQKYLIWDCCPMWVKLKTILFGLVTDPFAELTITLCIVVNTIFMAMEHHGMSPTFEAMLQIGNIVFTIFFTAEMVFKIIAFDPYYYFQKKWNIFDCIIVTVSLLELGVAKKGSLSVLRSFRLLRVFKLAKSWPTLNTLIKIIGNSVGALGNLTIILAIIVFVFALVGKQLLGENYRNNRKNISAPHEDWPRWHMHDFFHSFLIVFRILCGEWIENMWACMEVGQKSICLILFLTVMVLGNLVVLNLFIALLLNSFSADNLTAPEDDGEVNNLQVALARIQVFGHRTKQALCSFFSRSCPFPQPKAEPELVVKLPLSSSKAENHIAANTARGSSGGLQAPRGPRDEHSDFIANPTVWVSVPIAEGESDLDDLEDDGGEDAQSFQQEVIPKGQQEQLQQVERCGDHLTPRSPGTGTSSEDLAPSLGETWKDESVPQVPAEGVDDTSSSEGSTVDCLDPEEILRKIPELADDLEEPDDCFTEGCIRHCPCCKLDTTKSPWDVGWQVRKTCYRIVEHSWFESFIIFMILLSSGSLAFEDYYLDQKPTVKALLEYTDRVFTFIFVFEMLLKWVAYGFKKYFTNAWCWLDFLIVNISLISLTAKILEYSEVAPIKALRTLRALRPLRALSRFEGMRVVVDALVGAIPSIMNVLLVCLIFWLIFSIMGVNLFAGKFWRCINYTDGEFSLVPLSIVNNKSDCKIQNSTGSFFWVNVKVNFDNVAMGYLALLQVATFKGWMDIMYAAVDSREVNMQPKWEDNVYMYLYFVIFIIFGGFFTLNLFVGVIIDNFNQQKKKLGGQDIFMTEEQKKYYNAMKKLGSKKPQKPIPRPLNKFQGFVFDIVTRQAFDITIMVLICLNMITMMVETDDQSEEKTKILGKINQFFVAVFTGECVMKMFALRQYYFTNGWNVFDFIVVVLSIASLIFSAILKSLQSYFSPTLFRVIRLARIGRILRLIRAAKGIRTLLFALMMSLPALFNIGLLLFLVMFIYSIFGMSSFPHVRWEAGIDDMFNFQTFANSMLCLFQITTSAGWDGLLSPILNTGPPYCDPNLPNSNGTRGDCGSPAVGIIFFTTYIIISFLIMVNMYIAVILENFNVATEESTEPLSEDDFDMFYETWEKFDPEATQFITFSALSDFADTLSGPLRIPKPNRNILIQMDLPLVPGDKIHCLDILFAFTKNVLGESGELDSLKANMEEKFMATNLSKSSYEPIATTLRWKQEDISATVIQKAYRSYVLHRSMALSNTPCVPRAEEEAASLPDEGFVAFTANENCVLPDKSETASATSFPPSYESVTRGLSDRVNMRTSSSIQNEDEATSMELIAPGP

## Cc1cc(F)ccc1N1CN(c2ccc(=O)n(COP(=O)(O)O)c2C)C(=O)c2cc(C(F)(F)F)c(F)cc21 [Example 1, (5-(7-fluoro-1-(4-fluoro-2-methylphenyl)-4-oxo-6-(trifluoromethyl)-1,4-dihydroquinazolin-3(2H)-yl)-6-methyl-2-oxopyridin-1(2H)-yl)methyl dihydrogen phosphate]
CAD kinetic solubility
  solubility at 1 h: ≥ 192 µg/mL
Human Nav1.8
  IC50: 0.0316 µM

## Cc1cc(F)ccc1N1CN(c2ccc(=O)[nH]c2C)C(=O)c2cc(C(F)(F)F)c(F)cc21 [Example 1A, 7-fluoro-1-(4-fluoro-2-methylphenyl)-3-(2-methyl-6-oxo-1,6-dihydropyridin-3-yl)-6-(trifluoromethyl)-2,3-dihydroquinazolin-4(1H)-one]
CAD kinetic solubility
  solubility at 1 h: 32 µg/mL (≈ 71.2 µM)
Human Nav1.8
  IC50: 0.01 µM

## Cc1cc(OC(F)(F)F)ccc1N1CN(c2cc(C)c(=O)n(COP(=O)(O)O)c2C)C(=O)c2cc(C(F)(F)F)cnc21 [Example 2, (3,6-dimethyl-5-(1-(2-methyl-4-(trifluoromethoxy)phenyl)-4-oxo-6-(trifluoromethyl)-1,4-dihydropyrido[2,3-d]pyrimidin-3(2H)-yl)-2-oxopyridin-1(2H)-yl)methyl dihydrogen phosphate]
CAD kinetic solubility
  solubility at 1 h: ≥ 217 µg/mL
Human Nav1.8
  IC50: 0.501 µM

## Cc1cc(OC(F)(F)F)ccc1N1CN(c2cc(C)c(=O)[nH]c2C)C(=O)c2cc(C(F)(F)F)cnc21 [Example 2A, 3-(2,5-dimethyl-6-oxo-1,6-dihydropyridin-3-yl)-1-(2-methyl-4-(trifluoromethoxy)phenyl)-6-(trifluoromethyl)-2,3-dihydropyrido[2,3-d]pyrimidin-4(1H)-one]
CAD kinetic solubility
  solubility at 1 h: 56 µg/mL (≈ 109 µM)
Human Nav1.8
  IC50: 0.02 µM

## Cc1c(N2CN(c3ccc(=O)n(COP(=O)(O)O)c3C)C(=O)c3cc(C(F)(F)F)ncc32)ccc(F)c1F [Example 3, (5-(1-(3,4-Difluoro-2-methylphenyl)-4-oxo-6-(trifluoromethyl)-1,4-dihydropyrido[3,4-d]pyrimidin-3(2H)-yl)-6-methyl-2-oxopyridin-1(2H)-yl)methyl dihydrogen phosphate]
CAD kinetic solubility
  solubility at 1 h: 224 µg/mL
Human Nav1.8
  IC50: 1.26 µM

## Cc1[nH]c(=O)ccc1N1CN(c2ccc(F)c(F)c2C)c2cnc(C(F)(F)F)cc2C1=O [Example 3A, 1-(3,4-difluoro-2-methylphenyl)-3-(2-methyl-6-oxo-1,6-dihydropyridin-3-yl)-6-(trifluoromethyl)-2,3-dihydropyrido[3,4-d]pyrimidin-4(1H)-one]
CAD kinetic solubility
  solubility at 1 h: ≥ 210 µg/mL
Human Nav1.8
  IC50: 0.1 µM

## Cc1c(N2CN(c3ccc(=O)n(COP(=O)(O)O)c3C)C(=O)c3cc(F)c(Cl)cc32)ccc(F)c1F [Example 4, (5-(7-chloro-1-(3,4-difluoro-2-methylphenyl)-6-fluoro-4-oxo-1,4-dihydroquinazolin-3(2H)-yl)-6-methyl-2-oxopyridin-1(2H)-yl)methyl dihydrogen phosphate]
CAD kinetic solubility
  solubility at 1 h: 157 µg/mL
Human Nav1.8
  IC50: 0.0316 µM
[1]; male, Han Wistar, blood, prodrug Example 4, intravenous infusion, 1 mg/kg, mean ± SD, N=3, read-out: Vdss
  Vd: 0.687 ± 0.284 L/kg
[1]; male, Han Wistar, prodrug Example 4 in blood, 60-minute intravenous infusion of Example 4, 1 mg/kg (Table 5A: 1.2 ± 0.1 mg/kg), mean ± SD, N=3
  Cmax: 238 ± 45 ng/mL
[1]; [2]
  MRT: 6 ± 1.2 min
  half-life: 40.2 ± 17.4 min
[1]; [3]
  AUC(0-inf): 197 ± 44 ng·h/mL
  AUC(0-t): 197 ± 284 ng·h/mL
[1]; male, Han Wistar, systemic blood clearance of prodrug Example 4, intravenous infusion, 1 mg/kg, mean ± SD, N=3
  clearance: 110 ± 33 mL/min/kg
[1]; prodrug Example 4 in blood, oral via gastric cannula, 2 mg/kg (Table 5A: 3.0 ± 0.0 mg/kg)
  quantifiable concentrations following oral administration: There were no

## Cc1cc(F)ccc1N1CN(c2ccc(=O)n(COP(=O)(O)O)c2C)C(=O)c2cc(F)c(Cl)cc21 [Example 5, (5-(7-Chloro-6-fluoro-1-(4-fluoro-2-methylphenyl)-4-oxo-1,4-dihydroquinazolin-3(2H)-yl)-6-methyl-2-oxopyridin-1(2H)-yl)methyl dihydrogen phosphate]
CAD kinetic solubility
  solubility at 1 h: 135 µg/mL
Human Nav1.8
  IC50: 0.0631 µM
